The values that follow come from publication PMC11378297, “Discovery and Profiling of New Multimodal Phenylglycinamide Derivatives as Potent Antiseizure and Antinociceptive Drug Candidates” (ACS Chemical Neuroscience, 2024).

Data set [1] can be described thus: PAMPA (Precoated PAMPA Plate System Gentest) passive permeability. It counts as in vitro ADME.
Data set [2] relates to mature-BDNF (mBDNF) expression. Nature of the data set: mBDNF expression in hippocampus and cortex of PTZ-kindled mice (Western blot). It counts as in vivo, mouse. The conditions noted are these: 80 mg/kg repeated, p < 0.01 vs PTZ kindling control. The source says:
However, there are also few reports showing opposite findings.[51],[52] […] No changes in the expression of the nerve growth factor (NGF) were observed (Figure 6D–F).
Figure 6 Changes in mature-BDNF (mBDNF) expression in hippocampus (A) and cortex (C) and in proNGF expression in hippocampus (D) and cortex (F) with representative immunoblots, together with total protein amount visualized by the stain-free technique (B,E). Data are shown as means of relative expressions + SD (n = 8). Statistical significance was evaluated by one-way ANOVA followed by Tukey’s post hoc test: **p < 0.01 (GraphPad Prism 8.4.3).
The Western Blot method was used to assess the expression of proNGF and mBDNF in the mouse brain and hippocampal tissues. Using a bead homogenizer (Bead Ruptor Elite, Omni International, USA), the cortical and hippocampal regions of the mouse brain were weighted and homogenized at a ratio of 9 μL/mg in 2% SDS supplemented with a cocktail of protease (Thermo Scientific, Walthman, MA, USA) and phosphatase inhibitors (Sigma-Aldrich, St. Louis, MO, USA). Samples were then centrifuged at 10,000g for 10 min at 4 °C after being denatured for 10 min at 95 °C. […] One-way ANOVA with Tukey’s post hoc test was utilized to examine changes in the relative expression of the proteins that were evaluated.

Data set [3] in a line: thermogravimetric analysis and differential scanning calorimetry. The data set is classed as physicochemical. The source says:
Bearing in mind that the active pharmaceutical ingredients are often exposed to heat upon a final dosage form manufacturing (e.g., granulation, hot melt-extrusion, and coating), high thermal stability of the compound is a favorable feature predisposing the molecule (R)-32 for a further development. Another property that may considerably slow down the process of bringing a new molecule to the market is limited solubility in water. Thus, a simple approach to verify if it would be possible to overcome this drawback by the physical modification of its crystalline structure was also undertaken. […] The melting endotherm of crystalline (R)-32 had the onset ca. 115 °C and the minimum at 126 °C. After a simple thermal treatment such as cooling of the melt, the amorphous form of (R)-32 was obtained. Its glass transition temperature was relatively low, ca. 30 °C, which means that (R)-32 should be coprocessed with excipients of antiplasticizing properties to develop enabling formulations stable at ambient storage conditions.
A Mettler Toledo thermogravimetric analysis/SDTA 851^e apparatus calibrated with indium, zinc, and aluminum was used. Its accuracy was equal to 10^–6 g. The samples were placed in an open aluminum crucible. The measurements were performed in Ar 5.0 (50 mL/min). The temperature ranged from 25 to 400 °C. The constant heating rate of 10 °C/min was applied. […]
(In general: DSC measures the heat that a sample takes up or gives off during a temperature scan.)

In the case of `CC(=O)N[C@@H](C(=O)N1CCN(c2cccc(OC(F)(F)F)c2)CC1)c1ccccc1` [(R)-32, (R)-N-(2-Oxo-1-phenyl-2-(4-(3-(trifluoromethoxy)phenyl)piperazin-1-yl)ethyl)acetamide], the “Pe relative to that of caffeine” value in data set [1] was “approximately 70%”. Besides, in data set [1] (passive blood–brain barrier permeability model, read-out: permeability coefficient (Pe)), the Papp was found to be 2.42 ×10⁻⁶ cm/s. Further, the “mBDNF protein expression in the hippocampus (PTZ kindling-induced overexpression)” value in data set [2] is “reversed the overexpression”. Also, in data set [3] (10 °C/min), the “thermally stable while heating up to (weight loss noted, TGA)” value was found to be 190 °C. Besides, the “glass transition temperature of the amorphous form (DSC)” value in data set [3] (after cooling of the melt) was “ca. 30 °C”.
